Data on four molecules can be found in patent US6989245B2, “Screening, diagnostic and therapeutic methods relating to RIZ” (The Burnham Institute, priority 2001, dated 2006).

Assay [1] relates to histone H1 phosphorylation in MCF7 cells. Put plainly: H1 phosphorylation in MCF7 cells by western blot. Format: cell-based, human. To be noted: E2 48 hr. The procedure: MCF-7 and T47-D breast cancer cells were grown in 15 cm dishes in DMEM with 5% FCS, and 2 mM L-glutamine. Subconfluent cells (4×10^6) were then cultured in DMEM without phenol red, serum or hormones for an additional 3 days, during which media was changed twice daily. Cells were incubated for 24 h with or without hormones (50 nM for E2 and 100 nM for R5020) and infected with an adenovirus vector containing RIZ1 (AdRIZ1; at a concentration of 1×10^10 viral particles/15 cm dish) or the empty vector (AdNull) (He et al., Cancer Res. 58:4238-4244 (1998)). Cells were then grown for an additional 48 h in DMEM without phenol red supplemented with 5% charcoal-treated FCS (Omega Scientific). Cells were harvested and proceeded to immunoprecipitation and immunoblot essentially as described (Buyse et al., Proc. Natl. Acad. Sci. U.S.A. 92:4467-4471 (1995); Liu et al., J. Biol. Chem. 272:2984-2991 (1997)). […]
Because H1 phosphorylation has been linked with transcriptional activation (Bhattacharjee et al., Mol. Cell. Biol. 21:5417-5425 (2001); Dou and Gorovsky, Mol. Cell. 6:225-231 (2000)), it was next asked whether E2 or RIZ1 can enhance H1 phosphorylation. Histones were extracted from MCF7 cells infected with AdRIZ1 or control virus and analyzed by western blot analysis using antibodies that recognize specifically phosphorylated H1.

Assay [2] concerns uterus of OVXed mice. The assay is described as follows: uterine growth in response to E2 in ovariectomized (OVXed) mice. To be noted: E2 0.8 ng/g/day S.C. three days. It counts as in vivo. The method, then: To investigate E2-mediated increments in proliferation and hyperemia of uteri and changes in the cellular organization of the vaginal epithelium (Xu et al., Science 279:1922-1925 (1998)), 8-week old female RIZ−/− and RIZ+/+mice were ovariectomized (OVXed). At day 15-17 following OVX, mice were treated with S.C. injections of E2 (0.8 ng/g/day; Sigma) or with the vehicle (0.1 ml corn oil) alone for three days. The mice were then sacrificed at day 18 and the uterine wet weight was measured, and vaginal tissue was collected. The tissues were processed as above and vaginal specimens were stained with routine H & E and uterine specimens for PR expression. The thickness of the vaginal epithelium and the cornified layer was photographed and measured as described in FIG. 4 using the Spot 3.2.4. software (Diagnostic Instruments).
The RIZ1 mutant mice are deficient in RIZ1, but not RIZ2, and therefore lack specifically any PR-domain related functions of the gene (Steele-Perkins et al., Genes Dev. 15:2250-2262 (2001)). These animals are viable and fertile and show no gross developmental defects (Steele-Perkins et al., supra (2001)). To determine the physiological role of RIZ1 in steroid hormone action, uterine growth in response to E2 was first examined in ovariectomized (OVXed) mice (Lubahn et al., Proc. Natl. Acad. Sci. USA 90:11162-11166 (1993)). Wild-type or heterozygous RIZ1 mutant mice responded to E2 treatment with a 5.3±0.5 and 5.4±0.4 fold increase in uterine wet weight. […] Uterine response to mechanical traumatization (decidual stimulation) is mainly a progesterone receptor-dependent process (Lydon et al., Genes Dev. 9:2266-2278 (1995)). OVXed mice were treated with a high dose of progesterone and a low dose of E2, followed by mechanical stimulation of the left uterine horn of each animal. The unstimulated […] uterine horn served as a control.

The test system of assay [3] is progesterone receptor gene expression in luminal epithelial cells of the uterus. Put plainly: E2 regulation of uterine progesterone receptor expression (immunohistochemistry). Format: in vivo, mice. The text has this:
For RIZ staining, the RIZ rabbit antiserum KG7.1S (Buyse et al., Proc. Natl. Acad. Sci. U.S.A. 92:4467-4471 (1995)) was used at an optimal dilution of 1/200. For ERα staining the polyclonal rabbit anti-ERα antibody (sc-542 Santa Cruz) was used at a dilution of 1/250, and for PR staining the polyclonal rabbit anti-PR antibody (A0098 DAKO) was used at a dilution of 1/100, essentially as described (Tibbetts et al., Biol. Reprod. 59:1143-1152 (1998)). Tissues were fixed in Bouin's solution and processed by routine methods for embeddement in paraffin and sectioning (5 μm). […]
To investigate E2-mediated increments in proliferation and hyperemia of uteri and changes in the cellular organization of the vaginal epithelium (Xu et al., Science 279:1922-1925 (1998)), 8-week old female RIZ−/− and RIZ+/+mice were ovariectomized (OVXed). […] The mice were then sacrificed at day 18 and the uterine wet weight was measured, and vaginal tissue was collected. […] The thickness of the vaginal epithelium and the cornified layer was photographed and measured as described in FIG. 4 using the Spot 3.2.4. software (Diagnostic Instruments).
The epithelial and stromal compartments of the uterus were then analyzed for E2-induced changes in progesterone receptor expression. […]

Assay [4] deals with RIZ1 HMT activity. Put plainly: HMT activity of RIZ1 immunoprecipitated from E2 treated MCF-7 cells. It counts as cell-based, human. To be noted: RIZ1 immunoprecipitates. The procedure:
(§1) Methylation reactions (30-40 μl) contained 20 mM Tris-HCl (pH8.0), 0.2 M NaCl, 0.4 mM EDTA, affinity-purified GST-RIZ1 or immunoprecipitation products, free histones (20-40 μg) purified from acid extraction of human cancer cells (A549 or U2OS), and 3 μl (1.65 μCi and 21 pmole)[methyl-^3H]-adenosyl-methionine (Amersham-Pharmacia). Nuclear extracts were prepared according to standard procedures and used for immunoprecipitation. Antisera used for immunoprecipitation were anti-KG7.1S and preimmune serum as described previously (Buyse et al., Proc. Natl. Acad. Sci. U.S.A. 92:4467-4471 (1995)). Similar HMT activity has also been observed with immunoprecipitates using a different serum (data not shown), 1715, which was described previously (Steele-Perkins et al., Genes Dev. 15:2250-2262 (2001)). Various amount of SAH (Sigma) were added in some methylation reactions.
To help understand this apparent paradox, the estrogen effects on RIZ1 HMT activity were examined. Nuclear extracts from control and E2 treated MCF-7 cells were immunoprecipitated by RIZ1 serum anti-KG7.1S or preimmune serum. As expected, HMT activity (labeling of H3 and H1) was detected in the immunoprecipitates of RIZ1 serum but not preimmune serum (FIG. 7A, lanes 1 and 3). […] Thus, E2 appears to regulate RIZ1 HMT activity in a selective way, inhibiting specifically methylation of H3 but not H1.

The target of assay [5] is protein methyltransferase (PMT). The settings on record: universal inhibitor of PMT; cited from earlier work.
The target in assay [6] is T1, RIZ1 methyltransferase (Homo sapiens, UniProt Q13029, DUP703-703).
T1 construct: Enzyme activity of full-length RIZ1 protein from mammalian cells was next assayed; expressed in transfected cells; host or cells: U2OS human osteosarcoma cells infected with AdRIZ1 adenovirus
The assay is described as follows: in vitro methylation of histones by immunoprecipitated RIZ1. Format: biochemical. To be noted: 0.42 μM of 3H-SAM. The procedure:
as §1
In view of RIZ1's role in tumor suppression, it was determined whether S-adenosylhomocysteine (SAH), an analog inhibitor of SAM-dependent methyltransferases whose abnormal accumulation is linked with carcinogenesis, can inhibit RIZ1 enzyme activities. The effect of SAH on the in vitro methylation of histones by immunoprecipitated RIZ1 was tested. A methylation assay was performed in the presence of 0, 0.5 and 5 μM of SAH and 0.42 μM of 3H-SAM.

In assay [7] the test system is RIZ1 HMT activity. Put plainly: HMT activity of RIZ1 immunoprecipitates from TPA treated U937 cells. It counts as cell-based, human. The settings on record: 24 hr following TPA treatment. The procedure: as §1
To further study the contrasting behavior of H1 and H3 methylation, regulation of RIZ1 HMT activity by cell growth was examined, using 12-O-tetradecanoyl-phorbol-13-acetate (TPA) treatment of U937 myeloid leukemic cells as a model system. U937 cells undergo growth arrest and terminal differentiation into monocytes when exposed to TPA. This cell model was selected for study because it has been shown in these cells that RIZ gene expression is only marginally regulated by TPA. […]

For assay [8], the system named is prostate of orchiectomized male mice. The assay is described as follows: prostate growth in orchiectomized male mice treated with testosterone. To be noted: testosterone 3 mg/kg/day S.C. 7 days. Format: in vivo. The method, then: In order to evaluate the response to testosterone, twelve week old male mice were orchiectomized (ORCed) and testicles were wet weighed (Xu et al., Science 279:1922-1925 (1998)). Nine days following ORC, mice were treated during days 9-15 with S.C. injections of testosterone (3 mg/kg/day, Sigma) or vehicle alone (0.1 ml corn oil). On day 16, mice were sacrificed and the prostate and the pars prostate of the urethra (for technical reasons) were removed and wet weighed.
Eight days after orchiectomization, prostates in both wild-type and mutant animals regressed. Injection of testosterone for 7 days stimulated prostate growth in wild-type animals as well as in RIZ1 null animals. Wild-type and RIZ1 null mutant animals had similar ratios of the weight of prostate and urethra to body weight (1.19±0.03 vs. 1.14±0.03; n=10 and 9 mice for +/+ and −/−, respectively; p=0.23). They also had similar ratios of testis weight to body weight (7.7±0.4 vs. 7.4±0.4; n=14 for both genotypes; p=0.58).

Usually Ki stands for a measure of affinity in units of concentration, obtained from inhibition or displacement.

T1 sequence (Q13029 with tags, fused parts or gaps DUP703-703): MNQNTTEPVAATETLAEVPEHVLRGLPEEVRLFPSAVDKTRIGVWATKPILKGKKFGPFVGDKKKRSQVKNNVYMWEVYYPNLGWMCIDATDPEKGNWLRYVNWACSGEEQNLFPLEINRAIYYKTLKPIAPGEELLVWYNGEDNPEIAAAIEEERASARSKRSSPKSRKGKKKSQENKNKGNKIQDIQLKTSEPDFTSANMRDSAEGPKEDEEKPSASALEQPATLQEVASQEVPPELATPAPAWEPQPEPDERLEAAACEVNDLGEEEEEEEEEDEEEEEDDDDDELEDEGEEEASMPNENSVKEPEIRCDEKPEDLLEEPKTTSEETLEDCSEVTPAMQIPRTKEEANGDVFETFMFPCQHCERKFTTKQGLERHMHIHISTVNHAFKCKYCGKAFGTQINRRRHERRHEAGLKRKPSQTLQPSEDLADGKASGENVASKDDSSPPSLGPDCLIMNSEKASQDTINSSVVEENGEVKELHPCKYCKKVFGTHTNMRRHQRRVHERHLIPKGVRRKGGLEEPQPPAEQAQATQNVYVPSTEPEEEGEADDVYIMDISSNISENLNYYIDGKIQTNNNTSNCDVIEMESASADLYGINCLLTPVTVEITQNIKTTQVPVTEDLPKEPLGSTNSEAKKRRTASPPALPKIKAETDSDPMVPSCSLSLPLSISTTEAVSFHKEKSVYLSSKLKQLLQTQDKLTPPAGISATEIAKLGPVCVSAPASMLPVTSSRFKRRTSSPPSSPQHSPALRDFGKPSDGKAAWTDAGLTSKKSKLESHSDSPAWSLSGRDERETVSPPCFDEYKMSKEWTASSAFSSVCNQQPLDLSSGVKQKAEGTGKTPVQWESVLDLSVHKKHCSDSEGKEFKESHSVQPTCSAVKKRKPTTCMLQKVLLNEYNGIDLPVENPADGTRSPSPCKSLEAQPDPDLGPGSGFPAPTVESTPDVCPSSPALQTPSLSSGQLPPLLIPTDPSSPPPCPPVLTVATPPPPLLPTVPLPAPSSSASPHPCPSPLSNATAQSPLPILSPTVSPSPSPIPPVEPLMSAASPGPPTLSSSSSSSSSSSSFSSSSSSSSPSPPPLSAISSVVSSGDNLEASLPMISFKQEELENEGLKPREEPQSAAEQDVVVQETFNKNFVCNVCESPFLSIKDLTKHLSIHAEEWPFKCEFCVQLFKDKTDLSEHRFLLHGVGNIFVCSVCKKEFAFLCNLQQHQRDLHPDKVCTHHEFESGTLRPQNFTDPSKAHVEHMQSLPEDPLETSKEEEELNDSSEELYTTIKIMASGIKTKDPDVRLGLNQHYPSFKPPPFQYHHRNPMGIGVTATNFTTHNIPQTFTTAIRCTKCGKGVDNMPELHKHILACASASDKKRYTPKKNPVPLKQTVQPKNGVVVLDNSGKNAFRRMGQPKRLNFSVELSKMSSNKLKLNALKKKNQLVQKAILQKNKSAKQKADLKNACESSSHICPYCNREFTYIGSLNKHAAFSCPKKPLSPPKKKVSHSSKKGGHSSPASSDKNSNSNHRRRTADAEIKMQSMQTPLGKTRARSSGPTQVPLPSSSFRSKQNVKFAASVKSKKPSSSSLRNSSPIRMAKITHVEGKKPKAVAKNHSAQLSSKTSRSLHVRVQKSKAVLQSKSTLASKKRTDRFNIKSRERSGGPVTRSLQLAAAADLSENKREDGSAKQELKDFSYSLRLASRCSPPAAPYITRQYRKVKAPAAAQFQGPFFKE

Take `C[C@]12CC[C@@H]3c4ccc(O)cc4CC[C@H]3[C@@H]1CC[C@@H]2O` [E2, estradiol]: in assay [1], the H1 phosphorylation entry is listed as “increased”. Further, the “fold increase in uterine wet weight” value in assay [2] (heterozygous RIZ1 mutant OVXed mice) is 5.4±0.4 fold; in assay [2] (homozygous RIZ1 mutant OVXed mice), “about 3.7±0.4 fold”; in assay [2] (wild-type OVXed mice), 5.3±0.5 fold. Moreover, the “repression of progesterone receptor gene expression” value is 2 fold in assay [3] (in the absence of RIZ1) and about 20 fold in assay [3] (in the presence of RIZ1). Besides, the “H1 methylation by RIZ1” value in assay [4] is on record as “maintained or slightly enhanced”. In addition, in assay [4], the “H3 methylation by RIZ1” value was “decreased”.

As to `Nc1ncnc2c1ncn2[C@@H]1O[C@H](CSCC[C@H](N)C(=O)O)[C@@H](O)[C@H]1O` [SAH, S-adenosylhomocysteine], the Ki in assay [5] was 5 to 12 µM. The figures for the “Histone methylation by RIZ1” value in assay [6] (0.5 μM of SAH) and in assay [6] (5 μM of SAH) were “partially inhibited” and “completely inhibited”, respectively.

Consider `CCCCCCCCCCCCCC(=O)O[C@@H]1[C@@H](C)[C@@]2(O)[C@@H](C=C(CO)C[C@]3(O)C(=O)C(C)=C[C@@H]23)[C@@H]2C(C)(C)[C@]12OC(C)=O` [TPA, 12-O-tetradecanoyl-phorbol-13-acetate], for which, in assay [7], the “H1 methylation by RIZ1” value is given as “slightly decreased” and the “H3 methylation by RIZ1” value is “increased”.

On to `C[C@]12CC[C@H]3[C@@H](CCC4=CC(=O)CC[C@@]43C)[C@@H]1CC[C@@H]2O` [testosterone], for which the “ratio of the weight of prostate and urethra to body weight” value is given as 1.14±0.03 in assay [8] (RIZ1 null mutant orchiectomized mice, n=9) and 1.19±0.03 in assay [8] (wild-type orchiectomized mice, n=10).
